Experimental data from patent US20090304688A1, “Methods and Compositions for Increasing the Efficiency of Therapeutic Antibodies Using Gamma Delta T Cell Activators” (INNATE PHARMA S.A., priority 2006, published 2009).

Tested on: γδ T lymphocytes
Assay: In vivo amplification of γδ T lymphocytes in primates

## 3-(bromomethyl)-3-butanol-1-yl-diphosphate [BrHPP]
BrHPP 90 mg/kg i.v. with IL-2 in rituximab-treated animals
  amplification of γδ T lymphocytes in vivo: efficiently and repeatedly amplified
BrHPP in rituximab-treated animals compared with BrHPP alone
  level and kinetics of γδ T lymphocyte response: at least as good as what is generally observed with BrHPP alone
